From PubChem BioAssay (NCI)
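In this assay, cells in 96-well plates receive the compound at five concentrations for 48 hours. Endpoints are linearly interpolated between the surrounding concentrations. Here, GI50 denotes the concentration required for 50% inhibition of growth. TGI denotes the concentration required for complete inhibition of growth.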

What was measured:
Test in all cases: NCI anticancer screen, dose series, 48 h
786-0 renal = tested on: 786-0 renal
A498 renal = tested on: A498 renal
A549 NSCLC = tested on: A549 NSCLC
LOX IMVI melanoma = tested on: LOX IMVI melanoma
M14 melanoma = tested on: M14 melanoma
NCI-H23 lung = tested on: NCI-H23 lung
NCI-H460 lung = tested on: NCI-H460 lung
NCI/ADR-RES ovarian = tested on: NCI/ADR-RES ovarian
OVCAR-5 ovarian = tested on: OVCAR-5 ovarian
PC-3 prostate = tested on: PC-3 prostate

## C=CC(=O)N1CCN(c2ncnc3c(F)c(-c4c(O)cccc4F)c(Cl)cc23)CC1
786-0 renal
  GI50: 11.4 µM
  TGI: 25.4 µM
A498 renal
  GI50: 5.45 µM
  TGI: 19.1 µM
A549 NSCLC
  GI50: 18 µM
  TGI: 40.7 µM
LOX IMVI melanoma
  GI50: 12.6 µM
  TGI: 31 µM
M14 melanoma
  GI50: 12.6 µM
  TGI: 28.9 µM
NCI-H23 lung
  GI50: 0.43 µM
  TGI: 15.9 µM
NCI-H460 lung
  GI50: 14.8 µM
  TGI: 33.5 µM
NCI/ADR-RES ovarian
  GI50: 22.1 µM
  TGI: 76.1 µM
OVCAR-5 ovarian
  GI50: 18.4 µM
  TGI: 34.1 µM
PC-3 prostate
  GI50: 7.29 µM
  TGI: 30.3 µM

## COc1cc(/C=C2\CC3C4CC=C5CC(N6CCCC6)CC[C@]5(C)C4CC[C@]3(C)C2OC(C)=O)ccc1OCCN1CCCC1 (stereo not given in full)
786-0 renal
  GI50: 1.73 µM
  TGI: 3.16 µM
A498 renal
  GI50: 1.52 µM
  TGI: 3.26 µM
A549 NSCLC
  GI50: 2.08 µM
  TGI: 4.63 µM
LOX IMVI melanoma
  GI50: 1.27 µM
  TGI: 2.6 µM
M14 melanoma
  GI50: 1.89 µM
  TGI: 3.41 µM
NCI-H23 lung
  GI50: 14.2 µM
  TGI: 27.6 µM
NCI-H460 lung
  GI50: 1.9 µM
  TGI: 3.92 µM
NCI/ADR-RES ovarian
  GI50: 2.52 µM
  TGI: 5.2 µM
OVCAR-5 ovarian
  GI50: 3.01 µM
  TGI: 7.09 µM
PC-3 prostate
  GI50: 3.45 µM
  TGI: 10.2 µM

## C[C@H]1CCC/C=C/[C@@H]2C[C@H](N)C[C@H]2[C@H](O)/C=C/C(=O)O1
786-0 renal
  GI50: > 100 µM
  TGI: > 100 µM
A498 renal
  GI50: 67.9 µM
  TGI: > 100 µM
A549 NSCLC
  GI50: > 100 µM
  TGI: > 100 µM
LOX IMVI melanoma
  GI50: > 100 µM
  TGI: > 100 µM
M14 melanoma
  GI50: > 100 µM
  TGI: > 100 µM
NCI-H23 lung
  GI50: > 100 µM
  TGI: > 100 µM
NCI-H460 lung
  GI50: > 100 µM
  TGI: > 100 µM
NCI/ADR-RES ovarian
  GI50: > 100 µM
  TGI: > 100 µM
OVCAR-5 ovarian
  GI50: > 100 µM
  TGI: > 100 µM
PC-3 prostate
  GI50: > 100 µM
  TGI: > 100 µM

## Cc1c(C(=O)NN)nnn1-c1ccnc2c(C(F)(F)F)cccc12
786-0 renal
  GI50: > 100 µM
  TGI: > 100 µM
A498 renal
  GI50: > 100 µM
  TGI: > 100 µM
A549 NSCLC
  GI50: > 100 µM
  TGI: > 100 µM
LOX IMVI melanoma
  GI50: > 100 µM
  TGI: > 100 µM
M14 melanoma
  GI50: > 100 µM
  TGI: > 100 µM
NCI-H23 lung
  GI50: > 100 µM
  TGI: > 100 µM
NCI-H460 lung
  GI50: > 100 µM
  TGI: > 100 µM
NCI/ADR-RES ovarian
  GI50: > 100 µM
  TGI: > 100 µM
OVCAR-5 ovarian
  GI50: > 100 µM
  TGI: > 100 µM
PC-3 prostate
  GI50: > 100 µM
  TGI: > 100 µM

## CNC(=O)c1cc(Oc2ccc(NC(=O)Nc3ccc(Cl)c(OC(F)(F)F)c3)c(F)c2)ccn1
786-0 renal
  GI50: 4.65 µM
  TGI: > 33.2 µM
A498 renal
  GI50: 2.66 µM
  TGI: 11.4 µM
A549 NSCLC
  GI50: 2.03 µM
  TGI: > 33.2 µM
LOX IMVI melanoma
  GI50: 1.76 µM
  TGI: 25.2 µM
M14 melanoma
  GI50: 1.02 µM
  TGI: 5.38 µM
NCI-H23 lung
  GI50: 0.913 µM
  TGI: 5.58 µM
NCI-H460 lung
  GI50: 2.22 µM
  TGI: 17.6 µM
NCI/ADR-RES ovarian
  GI50: 1.37 µM
  TGI: 5.22 µM
OVCAR-5 ovarian
  GI50: 3.93 µM
  TGI: > 33.2 µM
PC-3 prostate
  GI50: 1.48 µM
  TGI: 19 µM

## CCCCCCNc1nc(NCCCCCC)c2[nH]c(NCCCCCC)nc2n1
786-0 renal
  GI50: 14.5 µM
  TGI: 27.6 µM
A498 renal
  GI50: 1.2 µM
  TGI: 10.5 µM
A549 NSCLC
  GI50: 1.58 µM
  TGI: 14.8 µM
LOX IMVI melanoma
  GI50: 2.66 µM
  TGI: 7.53 µM
M14 melanoma
  GI50: 14.1 µM
  TGI: 27.9 µM
NCI-H23 lung
  GI50: 8.77 µM
  TGI: 23.3 µM
NCI-H460 lung
  GI50: 5.37 µM
  TGI: 19.5 µM
NCI/ADR-RES ovarian
  GI50: 64.5 µM
  TGI: > 100 µM
OVCAR-5 ovarian
  GI50: 9.31 µM
  TGI: 24.7 µM
PC-3 prostate
  GI50: 9.14 µM
  TGI: 28.9 µM

## Cc1ccc([N+](=O)[O-])c2c(NCCCN(C)C)ccnc12
786-0 renal
  TGI: > 100 µM
A498 renal
  TGI: > 100 µM
A549 NSCLC
  TGI: > 100 µM
LOX IMVI melanoma
  TGI: > 100 µM
M14 melanoma
  TGI: > 100 µM
NCI-H23 lung
  TGI: > 100 µM
NCI-H460 lung
  TGI: 76.1 µM
NCI/ADR-RES ovarian
  TGI: > 100 µM
OVCAR-5 ovarian
  TGI: > 100 µM
PC-3 prostate
  TGI: > 100 µM

## COc1ccc(C2C(C#N)=C(N)OC3=C2CCCc2ccc(F)cc23)cc1OC (stereo not given)
786-0 renal
  GI50: 14.7 µM
  TGI: 29.8 µM
A498 renal
  GI50: 4.22 µM
  TGI: 21.9 µM
A549 NSCLC
  GI50: 25.8 µM
  TGI: > 69.6 µM
LOX IMVI melanoma
  GI50: 21.9 µM
  TGI: 44.8 µM
M14 melanoma
  GI50: 19.9 µM
  TGI: 41.8 µM
NCI-H23 lung
  GI50: 22.8 µM
  TGI: > 65.9 µM
NCI-H460 lung
  GI50: 20.9 µM
  TGI: 54.4 µM
NCI/ADR-RES ovarian
  GI50: 16.6 µM
  TGI: 43.9 µM
OVCAR-5 ovarian
  GI50: 24.7 µM
  TGI: 65.2 µM
PC-3 prostate
  GI50: 19.5 µM
  TGI: 38.8 µM

## O=P(O)(O)C(O)(Cn1ccnc1)P(=O)(O)O
786-0 renal
  GI50: 19 µM
  TGI: > 70 µM
A498 renal
  GI50: > 62.8 µM
  TGI: > 100 µM
A549 NSCLC
  GI50: > 95.7 µM
  TGI: > 100 µM
LOX IMVI melanoma
  GI50: > 47 µM
  TGI: > 100 µM
M14 melanoma
  GI50: > 53.3 µM
  TGI: > 100 µM
NCI-H23 lung
  GI50: > 89.7 µM
  TGI: > 100 µM
NCI-H460 lung
  GI50: > 100 µM
  TGI: > 100 µM
NCI/ADR-RES ovarian
  GI50: > 64.1 µM
  TGI: > 100 µM
OVCAR-5 ovarian
  GI50: > 89.2 µM
  TGI: > 100 µM
PC-3 prostate
  GI50: > 59.8 µM
  TGI: > 100 µM

## C=CCOc1c(Br)cc(Br)cc1Br
786-0 renal
  GI50: 34.1 µM
  TGI: > 100 µM
A498 renal
  GI50: 8.49 µM
  TGI: > 100 µM
A549 NSCLC
  GI50: 45.8 µM
  TGI: > 100 µM
LOX IMVI melanoma
  GI50: 15.9 µM
  TGI: > 100 µM
M14 melanoma
  GI50: 19.6 µM
  TGI: > 100 µM
NCI-H23 lung
  GI50: 10.1 µM
  TGI: > 100 µM
NCI-H460 lung
  GI50: 8.21 µM
  TGI: > 100 µM
NCI/ADR-RES ovarian
  GI50: 17.3 µM
  TGI: > 100 µM
OVCAR-5 ovarian
  GI50: 28.2 µM
  TGI: > 100 µM
PC-3 prostate
  GI50: 68 µM
  TGI: > 100 µM

## CCN(Cc1c(F)cccc1F)c1ccc(CO)c(Cl)c1
786-0 renal
  GI50: 15.3 µM
  TGI: 45.6 µM
A498 renal
  GI50: 0.0173 µM
  TGI: 0.069 µM
A549 NSCLC
  GI50: 0.445 µM
  TGI: 10.7 µM
LOX IMVI melanoma
  GI50: 17.4 µM
  TGI: 32.4 µM
M14 melanoma
  GI50: 19.4 µM
  TGI: 48.1 µM
NCI-H23 lung
  GI50: 15 µM
  TGI: 57.5 µM
NCI-H460 lung
  GI50: 0.0663 µM
  TGI: 0.612 µM
NCI/ADR-RES ovarian
  GI50: 6.86 µM
  TGI: 43.2 µM
OVCAR-5 ovarian
  GI50: 0.0353 µM
  TGI: 0.147 µM
PC-3 prostate
  GI50: 12.6 µM
  TGI: 46.9 µM

## CC(=O)[CH-]C(C)=O.CC(=O)[CH-]C(C)=O.N=CC=N.[Sn+2]
786-0 renal
  GI50: 1.76 µM
  TGI: 3.23 µM
A498 renal
  GI50: 9.97 µM
  TGI: 22.4 µM
A549 NSCLC
  GI50: 9.6 µM
  TGI: 22.4 µM
LOX IMVI melanoma
  GI50: 1.57 µM
  TGI: 2.97 µM
M14 melanoma
  GI50: 2.41 µM
  TGI: 5.7 µM
NCI-H23 lung
  GI50: 3.23 µM
  TGI: 10.9 µM
NCI-H460 lung
  GI50: 3.9 µM
  TGI: 10.8 µM
NCI/ADR-RES ovarian
  GI50: 3.15 µM
  TGI: 12.6 µM
OVCAR-5 ovarian
  GI50: 7.29 µM
  TGI: 19.2 µM
PC-3 prostate
  GI50: 5.03 µM
  TGI: 17.6 µM
